Among the data in patent US7932270B2 (Cytokinetics, Inc., priority 2006, dated 2011) are IC50 values, retold here.

The structures appear in SMILES notation.

The target of this test is T1, chicken gizzard smooth muscle myosin subfragment-1 chemically crosslinked to cardiac or skeletal actin (Gallus gallus, UniProt P10587).
T1 construct: chicken gizzard smooth muscle myosin subfragment-1; from tissue; host or cells: chicken gizzard
T1 sequence (P02607 2-151): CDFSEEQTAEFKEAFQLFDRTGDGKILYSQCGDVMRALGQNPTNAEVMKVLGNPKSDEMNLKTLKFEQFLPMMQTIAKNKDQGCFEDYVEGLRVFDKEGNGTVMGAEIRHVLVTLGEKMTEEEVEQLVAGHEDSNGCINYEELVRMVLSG
T1 sequence (P10587 84-789): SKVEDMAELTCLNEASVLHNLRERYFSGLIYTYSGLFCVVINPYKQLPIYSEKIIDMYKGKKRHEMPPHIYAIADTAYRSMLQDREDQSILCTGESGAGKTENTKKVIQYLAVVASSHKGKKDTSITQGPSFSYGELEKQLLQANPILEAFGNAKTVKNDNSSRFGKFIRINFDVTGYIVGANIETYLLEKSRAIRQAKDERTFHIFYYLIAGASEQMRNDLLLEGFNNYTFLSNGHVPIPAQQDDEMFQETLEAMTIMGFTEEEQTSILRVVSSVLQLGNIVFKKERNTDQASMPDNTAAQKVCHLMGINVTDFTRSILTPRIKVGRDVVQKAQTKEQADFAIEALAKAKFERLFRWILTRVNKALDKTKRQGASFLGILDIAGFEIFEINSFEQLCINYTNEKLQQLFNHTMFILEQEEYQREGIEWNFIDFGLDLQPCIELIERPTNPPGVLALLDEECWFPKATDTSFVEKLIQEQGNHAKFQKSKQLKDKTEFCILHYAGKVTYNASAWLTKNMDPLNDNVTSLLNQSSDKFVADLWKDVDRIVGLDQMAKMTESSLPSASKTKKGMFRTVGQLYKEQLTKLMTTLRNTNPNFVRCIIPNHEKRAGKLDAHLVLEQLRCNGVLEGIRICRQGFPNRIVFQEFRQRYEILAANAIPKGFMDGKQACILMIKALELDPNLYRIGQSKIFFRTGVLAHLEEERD
Description: Smooth muscle myosin ATPase dose response assay (pyruvate kinase/horseradish peroxidase/pyruvate oxidase-coupled, amplex red fluorescence). The conditions noted are these: read-out: IC50 Arithmetic Mean. Format: biochemical. The method in brief:
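EDC/NHS-crosslinked S1–actin, amount set per prep by rate titration. Buffer: 12 mM K-PIPES pH 7.00 (22° C), 100 mM KCl, 2 mM MgCl2, 0.15 mM ATP, 0.1 mM PEP, 2 mM KPi, 0.1 mM amplex red. Read ex 480/em 615 nm; IC50 = midpoint, 4-param Hill fit.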
The term IC50 denotes the concentration needed to halve the response being measured. Regarding `N#Cc1ccccc1-c1nc(NCCc2cccc(F)c2)c(C(=O)NC[C@H]2CCC(=O)N2CCCN)cc1F` [N-{[(2R)-1-(3-aminopropyl)-5-oxopyrrolidin-2-yl]methyl}(6-(2-cyanophenyl)-5-fluoro-2-{[2-(3-fluorophenyl)ethyl]amino}(3-pyridyl))carboxamide], the half-maximal inhibitory concentration (IC50) was 42 nM. Then `NCC(=O)N1CCC[C@@H]1CNC(=O)c1cc(F)c(-c2cn[nH]c2)nc1NCCc1cccc(F)c1` [N-{[(2R)-1-(2-aminoacetyl)pyrrolidin-2-yl]methyl}(5-fluoro-2-{[2-(3-fluorophenyl)ethyl]amino}-6-pyrazol-4-yl(3-pyridyl))carboxamide], with 61 nM; and `N#Cc1ccccc1-c1ccc(C(=O)NCCNC(=O)CN)c(NCCc2cccc(F)c2)n1` [2-amino-N-{2-[(6-(2-cyanophenyl)-2-{[2-(3-fluorophenyl)ethyl]amino}(3-pyridyl))carbonylamino]ethyl}acetamide], with 1230 nM. `COC(=O)[C@H](CN)NC(=O)c1ccc(-c2ccccc2C#N)nc1NCCc1cccc(F)c1` [methyl (2S)-3-amino-2-[(6-(2-cyanophenyl)-2-{[2-(3-fluorophenyl)ethyl]amino}(3-pyridyl))carbonylamino]propanoate]: the IC50 turned out to be 2320 nM. For `CC(C)(C)OC(=O)NCC(=O)N1CCC[C@H](CNC(=O)c2ccc(-c3ccccc3C#N)nc2NCCc2cccc(F)c2)C1` [N-[((3R)-1-{2-[(tert-butoxy)carbonylamino]acetyl}(3-piperidyl))methyl](6-(2-cyanophenyl)-2-{[2-(3-fluorophenyl)ethyl]amino}(3-pyridyl))carboxamide], the IC50 was 199 nM. Regarding `O=C(NCc1cccnc1)c1ccc(-c2ccccc2)nc1NCCc1cccc(F)c1` [(2-{[2-(3-fluorophenyl)ethyl]amino}-6-phenyl(3-pyridyl))-N-(3-pyridylmethyl)carboxamide], the 50% inhibitory concentration (IC50) came to 63 nM.

Consider `C[C@H](CNC(=O)c1cc(F)c(-c2cn[nH]c2)nc1NCCc1cccc(F)c1)NC(=O)CN`, for which the IC50 stood at 122 nM. With `N#Cc1ccccc1-c1ccc(C(=O)NC[C@@H]2CCCN(C(=O)CCN)C2)c(NCCc2cccc(F)c2)n1` [N-{[(3S)-1-(3-aminopropanoyl)(3-piperidyl)]methyl}(6-(2-cyanophenyl)-2-{[2-(3-fluorophenyl)ethyl]amino}(3-pyridyl))carboxamide], the IC50 stood at 1260 nM. Then `Cn1cnc(CCNc2nc(-c3ccccc3)ccc2C(=O)NCc2cccnc2)c1` [(2-{[2-(1-methylimidazol-4-yl)ethyl]amino}-6-phenyl(3-pyridyl))-N-(3-pyridylmethyl)carboxamide], with 32200 nM. For `CS(=O)(=O)N1CCCC(CNC(=O)c2ccc(-c3ccccc3)nc2NCCc2ccccn2)C1` (stereo not shown) [N-{[1-(methylsulfonyl)(3-piperidyl)]methyl}{6-phenyl-2-[(2-(2-pyridyl)ethyl)amino](3-pyridyl)}carboxamide], the IC50 was 20300 nM. Then `O=C(NCc1cccnc1)c1ccc(-c2ccccc2)nc1NCCc1ccco1` [{2-[(2-(2-furyl)ethyl)amino]-6-phenyl(3-pyridyl)}-N-(3-pyridylmethyl)carboxamide], with 294 nM; and `O=C(NCc1ccccn1)c1ccc(-c2ccccc2)nc1NCCc1ccccn1` [{6-phenyl-2-[(2-(2-pyridyl)ethyl)amino](3-pyridyl)}-N-(2-pyridylmethyl)carboxamide], with 463 nM. As to `N#Cc1ccccc1-c1ccc(C(=O)NC[C@@H]2CCCCN2C(=O)CCN)c(NCCc2cccc(F)c2)n1` [N-{[(2S)-1-(3-aminopropanoyl)(2-piperidyl)]methyl}(6-(2-cyanophenyl)-2-{[2-(3-fluorophenyl)ethyl]amino}(3-pyridyl))carboxamide], the 50% inhibitory concentration (IC50) was determined as 109 nM. Consider `CC(=O)N1CCC[C@H](CNC(=O)c2ccc(-c3ccccc3C#N)nc2NCCc2cccc(F)c2)C1` [N-[((3R)-1-acetyl(3-piperidyl))methyl](6-(2-cyanophenyl)-2-{[2-(3-fluorophenyl)ethyl]amino}(3-pyridyl))carboxamide], for which the IC50 turned out to be 696 nM. As for `NCCCN1C(=O)CNC[C@@H]1CNC(=O)c1ccc(-c2cn[nH]c2)nc1NCCc1cccc(F)c1` [N-{[(2R)-1-(3-aminopropyl)-6-oxopiperazin-2-yl]methyl}(2-{[2-(3-fluorophenyl)ethyl]amino}-6-pyrazol-4-yl(3-pyridyl))carboxamide], the IC50 was determined as 2340 nM. For the compound `Cn1cc(-c2ccc(C(=O)NCC3CNCC(=O)N3)c(NCCc3cccc(F)c3)n2)cn1` (stereo not shown) [(2-{[2-(3-fluorophenyl)ethyl]amino}-6-(1-methylpyrazol-4-yl)(3-pyridyl))-N-[(6-oxopiperazin-2-yl)methyl]carboxamide], the IC50 came out at 1240 nM. Then `O=C(NCc1cccnc1)c1ccc(-c2ccc(F)cc2)nc1NCCc1ccccn1` [{6-(4-fluorophenyl)-2-[(2-(2-pyridyl)ethyl)amino](3-pyridyl)}-N-(3-pyridylmethyl)carboxamide], with 1050 nM; and `Cc1ccc(-c2ccc(C(=O)NCc3cccnc3)c(NCCc3ccccn3)n2)cc1C` [{6-(3,4-dimethylphenyl)-2-[(2-(2-pyridyl)ethyl)amino](3-pyridyl)}-N-(3-pyridylmethyl)carboxamide], with 3380 nM.

Turning to `N#Cc1ccccc1-c1ccc(C(=O)NCc2cccnc2)c(NCCc2ccccc2F)n1` [(6-(2-cyanophenyl)-2-{[2-(2-fluorophenyl)ethyl]amino}(3-pyridyl))-N-(3-pyridylmethyl)carboxamide], the half-inhibitory concentration (IC50) amounted to 28 nM.

As to `O=C(NCc1cccnc1)c1ccc(-c2ccccc2)nc1NCCN1CCCCC1=O` [(2-{[2-(2-oxopiperidyl)ethyl]amino}-6-phenyl(3-pyridyl))-N-(3-pyridylmethyl)carboxamide], the half-maximal inhibitory concentration (IC50) amounted to 22100 nM. Then `N#Cc1ccc(CNC(=O)c2ccc(-c3ccccc3C#N)nc2NCCc2cccc(F)c2)cc1` [(6-(2-cyanophenyl)-2-{[2-(3-fluorophenyl)ethyl]amino}(3-pyridyl))-N-[(4-cyanophenyl)methyl]carboxamide], with 968 nM; and `CC(=O)NCC1CCCCN1C(=O)c1ccc(-c2ccccc2)nc1NCCc1ccccn1` (stereo not shown) [N-{[1-({6-phenyl-2-[(2-(2-pyridyl)ethyl)amino]-3-pyridyl}carbonyl)-2-piperidyl]methyl}acetamide], with 21200 nM.

Regarding `COC(=O)[C@H](CNC(=O)c1ccc(-c2ccccc2C#N)nc1NCCc1cccc(F)c1)NC(C)=O` [methyl (2S)-2-(acetylamino)-3-[(6-(2-cyanophenyl)-2-{[2-(3-fluorophenyl)ethyl]amino}(3-pyridyl))carbonylamino]propanoate], the 50% inhibitory concentration (IC50) was 1640 nM. As to `Cn1cc(-c2nc(NCCc3cccc(F)c3)c(C(=O)NC[C@H]3CCN3C(=O)OC(C)(C)C)cc2F)cn1` [tert-butyl (2R)-2-{[(5-fluoro-2-{[2-(3-fluorophenyl)ethyl]amino}-6-(1-methylpyrazol-4-yl)(3-pyridyl))carbonylamino]methyl}azetidinecarboxylate], the IC50 was found to be 525 nM. The value for `N#Cc1ccccc1-c1ccc(C(=O)NCc2ccc(N)cn2)c(NCCc2cccc(F)c2)n1` [N-[(5-amino(2-pyridyl))methyl](6-(2-cyanophenyl)-2-{[2-(3-fluorophenyl)ethyl]amino}(3-pyridyl))carboxamide] was 21 nM.
